This passage reports inhibition and Ki results from ChEMBL document CHEMBL1121752, “Cell-specific ligands for selective drug delivery to tissues and organs” (J Med Chem, 1981).

Assay [1] is filed under the species Rattus norvegicus. Briefly: Compound was evaluated for the inhibition of [125I]-labeled D-mannose-bovine serum albumin binding to alveolar macrophages at 100 uM.
The species entered for assay [2] is Rattus norvegicus. Briefly: Compound was evaluated for the inhibition of [125I]-labeled D-mannose-bovine serum albumin binding to alveolar macrophages at 50 uM.
The species entered for assay [3] is Rattus norvegicus. Briefly: Compound was evaluated for the inhibition of [125I]-labeled D-mannose-bovine serum albumin binding to alveolar macrophages at 10 uM.
The nature of assay [4]: Compound was evaluated for the inhibition of [125I]-labeled D-mannose-bovine serum albumin binding to alveolar macrophages. Further details: species or system Rattus norvegicus.

SMILES strings stand for the structures.

A word on the inhibition: it is the share of the control response that was lost under treatment. Read a high inhibition as strong suppression. Take `O=C(CSC1OC(CO)C(O)C(O)C1O)NCCCCC(NC(=O)[C@@H](CCCCNC(=O)CSC1OC(CO)C(O)C(O)C1O)NC(=O)CSC1OC(CO)C(O)C(O)C1O)C(=O)O` (stereo partly specified): the inhibition in the assay listed under Rattus norvegicus [1] was determined as 81%; in the assay filed under Rattus norvegicus [2], 68%; in the assay listed under Rattus norvegicus [3], 27%. Usually Ki stands for the dissociation constant of the complex between target and ligand, obtained from inhibition or displacement. A high value points to weaker binding. In turn, `O=C(CCSC1OC(CO)C(O)C(O)C1O)NCCCCC(NC(=O)C(CCCCNC(=O)CCSC1OC(CO)C(O)C(O)C1O)NC(=O)[C@@H](CCCCNC(=O)CCSC1OC(CO)C(O)C(O)C1O)NC(=O)CCSC1OC(CO)C(O)C(O)C1O)C(=O)O` (stereo partly specified) registered a Ki in assay [4] of 3.6 µM. As for `CC1OC(SCCC(=O)NCCCCC(NC(=O)[C@@H](CCCCNC(=O)CCSC2OC(C)C(O)C(O)C2O)NC(=O)CCSC2OC(C)C(O)C(O)C2O)C(=O)O)C(O)C(O)C1O` (stereo partly specified), the inhibition was determined as 45% in the assay filed under Rattus norvegicus [1] and 9% in the assay listed under Rattus norvegicus [3]. In assay [4], `CC(=O)C(CCCC/N=C(/N)CSC1OC(CO)C(O)C(O)C1O)NC(=O)[C@@H](CCCC/N=C(\N)CSC1OC(CO)C(O)C(O)C1O)/N=C(\N)CSC1OC(CO)C(O)C(O)C1O` (stereo partly specified) yielded a Ki of 6 µM. Still for that read-out and setting: for `CC(C)CCCC(C)C1CCC2C3CC=C4CC(OCCCCCCNC(=O)C(CCCCNC(=O)CCSC5OC(CO)C(O)C(O)C5O)NC(=O)[C@@H](CCCCNC(=O)CCSC5OC(CO)C(O)C(O)C5O)NC(=O)CCSC5OC(CO)C(O)C(O)C5O)CCC4(C)C3CCC12C` (stereo partly specified) the value was 4 µM; for `O=C(CCSC1OC(CO)C(O)C(O)C1O)NCCCCC(NC(=O)[C@@H](CCCCNC(=O)CCSC1OC(CO)C(O)C(O)C1O)NC(=O)CCSC1OC(CO)C(O)C(O)C1O)C(=O)O` (stereo in doubt; 14) [listing 1 of 2 here], 3.9 µM. In the case of `NCCCCCCNC(=O)C(CCCCNC(=O)CCSC1OC(CO)C(O)C(O)C1O)NC(=O)[C@@H](CCCCNC(=O)CCSC1OC(CO)C(O)C(O)C1O)NC(=O)CCSC1OC(CO)C(O)C(O)C1O` (stereo partly specified), the inhibition in the assay listed under Rattus norvegicus [1] turned out to be 5%. The molecule further showed a Ki in assay [4] of 8 µM. In assay [4], `N/C(CSC1OC(CO)C(O)C(O)C1O)=N\CCCC[C@@H](/N=C(\N)CSC1OC(CO)C(O)C(O)C1O)C(=O)O` (stereo partly specified) registered an inhibitory constant (Ki) of 100 µM. Consider `O=C(CCSC1OC(CO)C(O)C(O)C1O)NCCCCC(NC(=O)[C@@H](CCCCNC(=O)CCSC1OC(CO)C(O)C(O)C1O)NC(=O)CCSC1OC(CO)C(O)C(O)C1O)C(=O)O` (stereo in doubt; 31), for which the inhibition in the assay listed under Rattus norvegicus [1] was 2%; in the assay listed under Rattus norvegicus [2], 0%; in the assay filed under Rattus norvegicus [3] it was 0%.

`O=C(CCSC1OC(CO)C(O)C(O)C1O)NCCCC[C@H](NC(=O)CCSC1OC(CO)C(O)C(O)C1O)C(=O)O` (stereo partly specified): the Ki in assay [4] stood at 7.7 µM.

Consider `O=C(CCSC1OC(CO)C(O)C(O)C1O)NCCCCC(NC(=O)[C@@H](CCCCNC(=O)CCSC1OC(CO)C(O)C(O)C1O)NC(=O)CCSC1OC(CO)C(O)C(O)C1O)C(=O)O` (stereo in doubt; 14) [listing 2 of 2 here], for which the inhibition in the assay listed under Rattus norvegicus [1] was found to be 89%; in the assay listed under Rattus norvegicus [2], 81%; in the assay filed under Rattus norvegicus [3], 43%. The molecule `O=C(CCSC1OC(CO)C(O)C(O)C1O)NCCCCC(NC(=O)[C@@H](CCCCNC(=O)CCSC1OC(CO)C(O)C(O)C1O)NC(=O)CCSC1OC(CO)C(O)C(O)C1O)C(=O)NCCCCCCNC(=O)CCc1ccc(O)cc1` (stereo partly specified) returned a Ki in assay [4] of 9.3 µM. This counts as single-digit micromolar. Still for that read-out and setting: under `O=C(CCSC1OC(CO)C(O)C(O)C1O)NCCCC[C@@H](NC(=O)CCSC1OC(CO)C(O)C(O)C1O)C(=O)O` (stereo partly specified) stands 6.2 µM.
